Assay results reported in paper PMC7531004, “Discovery of gramicidin A analogues with altered activities by multidimensional screening of a one-bead-one-compound library” (Nature Communications, 2020).
Where a SMILES comes first, the peptide text is derived from it. [ ]: non-standard residue; d: D form. The star is where a group is joined. NHCH2CH2OH = OCCN*; For = O=C*

Assays:
[1] = tested on: Streptococcus pyogenes SSI-9; experiment: Antibacterial activity assay of bead-derived peptides (three concentrations); type: cell-based; parameters: key: +++: inhibition by the 640-fold diluted peptide solution; ++: inhibition by the 160-fold diluted solution; +: inhibition by the 40-fold diluted solution; -: no inhibition; conditions: S. pyogenes, bead-derived peptide solution, three concentrations
Method in brief: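 Bead-derived library peptide stocks in DMSO were tested undiluted and after 4- and 16-fold DMSO dilution against S. pyogenes SSI-9 (2 × 10^5 CFU/well) in cation-adjusted Mueller Hinton Broth with 5% laked horse blood. After 18 h at 37 °C, wells were scored for precipitation of grown cells.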

[2] = H+/Na+ transport assay of bead-derived peptides (one-point); type: biochemical; parameters: key: relative activity; mean of two control wells = 1.00; conditions: bead-derived peptide solution, EYPC/EYPG LUVs;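 note: relative to parent gramicidin A activity set to 1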
Method in brief: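 H+/Na+ transport is monitored through pyranine fluorescence in freshly extruded LUVs after a 30-min room-temperature vortex with each library peptide at a single concentration. Signals are normalized to detergent (Triton X-100) and untreated controls.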

[3] = tested on: P388 mouse leukemia cells; conditions: 92 h
Method in brief: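 First, library peptide stocks are diluted 250-fold in RPMI1640 with 10% heat-inactivated FBS. Next, they are mixed with P388 cells to give 1 × 10^4 cells/mL and incubated 92 h at 37 °C, 5% CO2. Finally, viability (%) is scored by WST-1 absorbance at 415 nm.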

| SMILES | antibacterial activity [1] | H+/Na+ transport activity normalized against the value of 1 (1.00) [2] | cell viability/% [3] [%] |
| --- | --- | --- | --- |
| CC(C)C[C@@H](NC(=O)[C@H](Cc1c[nH]c2ccccc12)NC(=O)[C@@H](CC(C)C)NC(=O)[C@H](Cc1c[nH]c2ccccc12)NC(=O)[C@H](NC(=O)[C@H](Cc1c[nH]c2ccccc12)NC(=O)[C@@H](CC(C)C)NC(=O)[C@@H](NC(=O)[C@H](NC(=O)[C@H](C)NC(=O)[C@H](NC(=O)[C@H](C)NC(=O)CNC(=O)[C@@H](NC=O)C(C)C)C(C)C)C(C)C)C(C)C)C(C)C)C(=O)N[C@@H](Cc1c[nH]c2ccccc12)C(=O)NCCO [compound 11146] (For-VGA[dV]A[dV]V[dL]W[dV]W[dL]W[dL]W-NHCH2CH2OH) | + | 1.08 | 100.0 |
| CNC(=O)C[C@@H](NC(=O)[C@H](Cc1c[nH]c2ccccc12)NC(=O)[C@@H](CC(C)C)NC(=O)[C@H](Cc1c[nH]c2ccccc12)NC(=O)[C@H](NC(=O)[C@H](Cc1c[nH]c2ccccc12)NC(=O)[C@H](NC(=O)[C@@H](NC(=O)[C@@H](CC(C)C)NC(=O)[C@H](C)NC(=O)[C@@H](CC(C)C)NC(=O)[C@H](C)NC(=O)CNC(=O)[C@@H](NC=O)C(C)C)C(C)C)C(C)C)C(C)C)C(=O)N[C@@H](Cc1c[nH]c2ccccc12)C(=O)NCCO [compound 9609] (For-VGA[dL]A[dL]V[dV]W[dV]W[dL]W[dD](NHMe)W-NHCH2CH2OH) | - | 1.15 | 100.0 |
| CC(C)C[C@@H](NC(=O)[C@H](C)NC(=O)CNC(=O)[C@@H](NC=O)C(C)C)C(=O)N[C@@H](C)C(=O)N[C@H](CC(C)C)C(=O)N[C@H](C(=O)N[C@H](CC(C)C)C(=O)N[C@@H](Cc1c[nH]c2ccccc12)C(=O)N[C@@H](C(=O)N[C@@H](Cc1c[nH]c2ccccc12)C(=O)N[C@H](CC(C)C)C(=O)N[C@@H](Cc1c[nH]c2ccccc12)C(=O)N[C@@H](C(=O)N[C@@H](Cc1c[nH]c2ccccc12)C(=O)NCCO)[C@H](C)O)C(C)C)C(C)C [compound 5508] (For-VGA[dL]A[dL]V[dL]W[dV]W[dL]W[dT]W-NHCH2CH2OH) | - | 1.19 | 100.0 |
| CNC(=O)C[C@@H](NC(=O)[C@H](Cc1c[nH]c2ccccc12)NC(=O)[C@H](NC(=O)[C@H](Cc1c[nH]c2ccccc12)NC(=O)[C@H](NC(=O)[C@H](Cc1c[nH]c2ccccc12)NC(=O)[C@@H](CC(C)C)NC(=O)[C@@H](NC(=O)[C@H](NC(=O)[C@H](C)NC(=O)[C@H](NC(=O)[C@H](C)NC(=O)CNC(=O)[C@@H](NC=O)C(C)C)C(C)C)C(C)C)C(C)C)C(C)C)C(C)C)C(=O)N[C@@H](Cc1c[nH]c2ccccc12)C(=O)NCCO [compound 5604] (For-VGA[dV]A[dV]V[dL]W[dV]W[dV]W[dD](NHMe)W-NHCH2CH2OH) | - | 1.03 | 69.7 |
| CC(C)C[C@@H](NC(=O)[C@H](C)NC(=O)[C@H](NC(=O)[C@H](C)NC(=O)CNC(=O)[C@@H](NC=O)C(C)C)C(C)C)C(=O)N[C@H](C(=O)N[C@@H](C(=O)N[C@@H](Cc1c[nH]c2ccccc12)C(=O)N[C@@H](C(=O)N[C@@H](Cc1c[nH]c2ccccc12)C(=O)N[C@H](CC(C)C)C(=O)N[C@@H](Cc1c[nH]c2ccccc12)C(=O)N[C@@H](C(=O)N[C@@H](Cc1c[nH]c2ccccc12)C(=O)NCCO)[C@H](C)O)C(C)C)C(C)C)C(C)C [compound 12285] (For-VGA[dV]A[dL]V[dV]W[dV]W[dL]W[dT]W-NHCH2CH2OH) | - | 1.01 | 100.0 |
| CC(C)C[C@@H](NC(=O)[C@H](Cc1c[nH]c2ccccc12)NC(=O)[C@H](NC(=O)[C@H](Cc1c[nH]c2ccccc12)NC(=O)[C@H](NC(=O)[C@@H](NC(=O)[C@H](NC(=O)[C@H](C)NC(=O)[C@H](NC(=O)[C@H](C)NC(=O)CNC(=O)[C@@H](NC=O)C(C)C)C(C)C)C(C)C)C(C)C)C(C)C)C(C)C)C(=O)N[C@@H](Cc1c[nH]c2ccccc12)C(=O)N[C@@H](C(=O)N[C@@H](Cc1c[nH]c2ccccc12)C(=O)NCCO)C(C)C [compound 676] (For-VGA[dV]A[dV]V[dV]W[dV]W[dL]W[dV]W-NHCH2CH2OH) | ++ | 1.02 | 100.0 |
| CC(C)C[C@@H](NC(=O)[C@H](C)NC(=O)CNC(=O)[C@@H](NC=O)C(C)C)C(=O)N[C@@H](C)C(=O)N[C@@H](C(=O)N[C@H](C(=O)N[C@@H](C(=O)N[C@@H](Cc1c[nH]c2ccccc12)C(=O)N[C@H](CC(C)C)C(=O)N[C@@H](Cc1c[nH]c2ccccc12)C(=O)N[C@H](CC(C)C)C(=O)N[C@@H](Cc1c[nH]c2ccccc12)C(=O)N[C@H](CC(C)C)C(=O)N[C@@H](Cc1c[nH]c2ccccc12)C(=O)NCCO)[C@H](C)O)C(C)C)C(C)C [compound 2172] (For-VGA[dL]A[dV]V[dT]W[dL]W[dL]W[dL]W-NHCH2CH2OH) | + | 1.22 | 100.0 |
| CC(C)C[C@@H](NC(=O)[C@H](C)NC(=O)CNC(=O)[C@@H](NC=O)C(C)C)C(=O)N[C@@H](C)C(=O)N[C@H](CC(C)C)C(=O)N[C@H](C(=O)N[C@H](CC(C)C)C(=O)N[C@@H](Cc1c[nH]c2ccccc12)C(=O)N[C@@H](C(=O)N[C@@H](Cc1c[nH]c2ccccc12)C(=O)N[C@@H](C(=O)N[C@@H](Cc1c[nH]c2ccccc12)C(=O)N[C@H](CC(C)C)C(=O)N[C@@H](Cc1c[nH]c2ccccc12)C(=O)NCCO)C(C)C)[C@H](C)O)C(C)C [compound 11660] (For-VGA[dL]A[dL]V[dL]W[dT]W[dV]W[dL]W-NHCH2CH2OH) | - | 1.09 | 100.0 |
| CNC(=O)C[C@@H](NC(=O)[C@@H](NC(=O)[C@@H](CC(C)C)NC(=O)[C@H](C)NC(=O)[C@@H](CC(C)C)NC(=O)[C@H](C)NC(=O)CNC(=O)[C@@H](NC=O)C(C)C)C(C)C)C(=O)N[C@@H](Cc1c[nH]c2ccccc12)C(=O)N[C@H](CC(C)C)C(=O)N[C@@H](Cc1c[nH]c2ccccc12)C(=O)N[C@@H](C(=O)N[C@@H](Cc1c[nH]c2ccccc12)C(=O)N[C@H](CC(C)C)C(=O)N[C@@H](Cc1c[nH]c2ccccc12)C(=O)NCCO)C(C)C [compound 1479] (For-VGA[dL]A[dL]V[dD](NHMe)W[dL]W[dV]W[dL]W-NHCH2CH2OH) | - | 1.19 | 100.0 |
| CNC(=O)C[C@@H](NC(=O)[C@@H](NC(=O)[C@@H](CC(C)C)NC(=O)[C@H](C)NC(=O)[C@@H](CC(C)C)NC(=O)[C@H](C)NC(=O)CNC(=O)[C@@H](NC=O)C(C)C)C(C)C)C(=O)N[C@@H](Cc1c[nH]c2ccccc12)C(=O)N[C@H](CC(C)C)C(=O)N[C@@H](Cc1c[nH]c2ccccc12)C(=O)N[C@@H](C(=O)N[C@@H](Cc1c[nH]c2ccccc12)C(=O)N[C@H](CC(C)C)C(=O)N[C@@H](Cc1c[nH]c2ccccc12)C(=O)NCCO)C(C)C [compound 7400] (For-VGA[dL]A[dL]V[dD](NHMe)W[dL]W[dV]W[dL]W-NHCH2CH2OH) | - | 1.30 | 100.0 |
| CC(C)C[C@@H](NC(=O)[C@H](C)NC(=O)CNC(=O)[C@@H](NC=O)C(C)C)C(=O)N[C@@H](C)C(=O)N[C@H](CC(C)C)C(=O)N[C@H](C(=O)N[C@@H](C(=O)N[C@@H](Cc1c[nH]c2ccccc12)C(=O)N[C@@H](C(=O)N[C@@H](Cc1c[nH]c2ccccc12)C(=O)N[C@@H](C(=O)N[C@@H](Cc1c[nH]c2ccccc12)C(=O)N[C@@H](C(=O)N[C@@H](Cc1c[nH]c2ccccc12)C(=O)NCCO)[C@H](C)O)C(C)C)C(C)C)C(C)C)C(C)C [compound 9735] (For-VGA[dL]A[dL]V[dV]W[dV]W[dV]W[dT]W-NHCH2CH2OH) | - | 1.18 | 100.0 |
| CC(C)C[C@@H](NC(=O)[C@@H](NC(=O)[C@H](NC(=O)[C@H](C)NC(=O)[C@H](NC(=O)[C@H](C)NC(=O)CNC(=O)[C@@H](NC=O)C(C)C)[C@H](C)O)C(C)C)C(C)C)C(=O)N[C@@H](Cc1c[nH]c2ccccc12)C(=O)N[C@@H](C(=O)N[C@@H](Cc1c[nH]c2ccccc12)C(=O)N[C@@H](C(=O)N[C@@H](Cc1c[nH]c2ccccc12)C(=O)N[C@@H](C(=O)N[C@@H](Cc1c[nH]c2ccccc12)C(=O)NCCO)C(C)C)C(C)C)C(C)C [compound 9799] (For-VGA[dT]A[dV]V[dL]W[dV]W[dV]W[dV]W-NHCH2CH2OH) | - | 1.26 | 100.0 |
| CC(C)C[C@@H](NC(=O)[C@H](C)NC(=O)[C@H](NC(=O)[C@H](C)NC(=O)CNC(=O)[C@@H](NC=O)C(C)C)C(C)C)C(=O)N[C@H](C(=O)N[C@H](CC(C)C)C(=O)N[C@@H](Cc1c[nH]c2ccccc12)C(=O)N[C@@H](C(=O)N[C@@H](Cc1c[nH]c2ccccc12)C(=O)N[C@H](CC(C)C)C(=O)N[C@@H](Cc1c[nH]c2ccccc12)C(=O)N[C@H](CC(C)C)C(=O)N[C@@H](Cc1c[nH]c2ccccc12)C(=O)NCCO)C(C)C)C(C)C [compound 5699] (For-VGA[dV]A[dL]V[dL]W[dV]W[dL]W[dL]W-NHCH2CH2OH) | + | 1.05 | 36.7 |
